According to US4374988A, “4-Heteroarylimidazo-[1,5-A]pyrimidines” (American Cyanamid Company, priority 1981, dated 1983):

Assays:
brain-specific receptors = assay: inhibition of 3H-benzodiazepine (3H-flunitrazepam) binding to brain-specific receptors; parameters: species or system rat (Wistar strain); conditions: 1 μM test compound (activity criterion), rat cortex P2 fraction, 0° C., 30 minutes
rats [1] = assay: thirsty rat conflict test (non-conditioned passive avoidance); format: in vivo, rat (Wistar strain)
Source text: Another test which has been employed to assess anti-anxiety effects is a non-conditioned passive avoidance procedure described by J. R. Vogel, B. Beer and D. E. Clody, "A Simple and Reliable Conflict Procedure for Testing Anti-Anxiety Agents", Psychopharmacologia, Vol. 21, pages 1-7 (1971). A conflict situation is induced in rats by a modification of this method. The test is referred to herein as the "thirsty rat conflict" test.
Groups of 8 naive, Wistar strain rats, weighing 200-240 g. each, were deprived of water for 48 hours. The test compounds were administered in single or graded, oral or intraperitoneal doses, suspended in distilled water and one drop of polysorbate 80. The control animals received the vehicle alone. After 30 or 60 minutes, each rat was placed in an individual clear plexiglass chamber. Tap water was available ad libitum from a nipple located in a black plexiglass box adjacent to the main chamber. A circuit carrying a 0.7 milliampere AC shocking current was established between the stainless steel grid floor of the chamber and the nipple. After 20 licks of non-shocked drinking, a fixed ratio of a 2-second "shock-on" and 19 licks "shock-off" cycle began and continued for a total of 3 minutes. The number of shocks taken by each rat during a 3-minute interval was recorded and compared to a control group.

rats [2] = assay: protection from pentylenetetrazole-induced clonic seizures in rats; format: in vivo, rat
Method: The anti-anxiety properties of the novel compounds of the invention have been established in a test which indicates anxiolytic activity by the measure of protection from convulsions resulting from the administration of pentylenetetrazole (sold as METROZOL, Reg. T.M.). Single or graded dosage levels of the test compounds were administered orally or intraperitoneally (in a 2% starch vehicle, containing 5% v/v polyethylene glycol and one to two drops of polysorbate 80) to groups of at least 4 rats. Thirty or 60 minutes after administration, the rats were treated intravenously with pentylenetetrazole at a dosage of 23 mg/kg. of body weight. This dose is estimated to cause clonic seizures in 99% of unprotected rats. A test compound is considered active if it protects 50% or more of the rats from clonic seizures. It has been reported (R. T. Hill and D. H. Tedeschi, "Animal Testing and Screening Procedures in Evaluating Psychotropic Drugs" in "An Introduction to Psychopharmacology", Eds. R. R. Rech and K. E. Moore, Raven Press, New York, pages 237-288 (1971)) that there is a high degree of correlation between antagonism of pentylenetetrazole seizures in rats and anti-anxiety effects in higher mammals.

| SMILES | inhibition of 3H-benzodiazepine binding (brain-specific receptors) | activity in the thirsty rat conflict test (rats [1]; intraperitoneal, 25 mg/kg) | resistance to convulsions induced by pentylenetetrazole (rats [2]; intraperitoneal, 50 mg./kg., pentylenetetrazole 23 mg/kg i.v.) | anxiolytic activity (thirsty rat conflict test) (rats [1]; general statement, oral or intraperitoneal, active if shocks significantly higher than control (Mann-Whitney U test)) | activity in the thirsty rat conflict test (rats [1]; oral, 25 mg./kg.) | ED50 (rats [2]; Rattus norvegicus, oral, dosage effective in 50% of the rats, pentylenetetrazole 23 mg/kg i.v., read-out: ED50, resistance to convulsions induced by pentylenetetrazole) | anxiolytic activity (protection from pentylenetetrazole convulsions) (rats [2]; general statement, oral or intraperitoneal, active if 50% or more of rats protected) | resistance to convulsions induced by pentylenetetrazole (in words) (rats [2]; oral) |
| --- | --- | --- | --- | --- | --- | --- | --- | --- |
| N#Cc1ncn2c(-c3cccs3)ccnc12 [Example 1, 4-(2-Thienyl)imidazo[1,5-a]pyrimidine-8-carbonitrile] | 39% | active | inactive |  |  |  |  |  |
| N#Cc1ncn2c(-c3ccsc3)ccnc12 [Example 2, 4-(3-Thienyl)imidazo[1,5-a]pyrimidine-8-carbonitrile] | 20% |  |  |  |  |  |  |  |
| N#Cc1ncn2c(-c3cccnc3)ccnc12 [Example 5, 4-(3-Pyridyl)imidazo[1,5-a]pyrimidine-8-carbonitrile] | 19% |  |  | shown to possess anxiolytic activity | active | 6.8 mg/kg | shown to possess anxiolytic activity | effective |
| CCOC(=O)c1ncn2c(-c3cccnc3)ccnc12 [Example 15, Ethyl 4-(3-pyridyl)imidazo[1,5-a]pyrimidine-8-carboxylate] | 49% |  |  |  | inactive |  |  |  |
